# Assay results: patent US10221177B2 (HYDRA BIOSCIENCES, INC., priority 2014, dated 2019)
# Assays:
# [1] = tested on: CFA-induced cold hypersensitivity of the hind paw; test: CFA-induced pain test, cold hypersensitivity (cold plate paw withdrawal latency); assay type: in vivo; conditions: cold plate 1° C., solution in 4% DMSO, 5% Tween-80, 20% Cremophor EL, and 71% water; for Average PWL Post-Treatment / PWL Change: 1-2 hour pre-treatment; for Average PWL Post-CFA: baseline before dosing
# human TRPA1 = human TRPA1 (Homo sapiens (Human), UniProt O75762); test: In vitro inhibition of human TRPA1, whole cell patch configuration; assay type: cell-based; conditions: current activation 10 μM AITC, tested concentrations 320 pM to 3.2 μM, read-out: hTRPA1 IC50
# Method in brief: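 Compound antagonism measured from voltage ramps (±100 or ±80 mV, 400 ms, every 4 s from −40 mV), analysed at −80 and 80 mV, or at constant −60 mV. HEPES-buffered NaCl bath, pH 7.4, EGTA or 2 mM Ca2+; temperature set by perfusion, within ±2° C; no junction-potential correction.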
# [2] = tested on: formalin-induced pain behaviors in the rat; test: Formalin-induced pain test (formalin model), duration of pain behaviors; assay type: in vivo; conditions: solution in 4% DMSO, 5% Tween-80, 20% Cremophor EL, 71% water
# Method in brief: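 Rats dosed orally with vehicle or compound (solutions with DMSO, Solutol, Labrasol, Tween-80, Cremophor EL, or methylcellulose suspensions) one hour before intraplantar injection of 50 μL 3% formalin into hind paw. Duration of pain behaviors counted by blinded observer; Phase I covers 0-5 min; comparison to vehicle.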
# [3] = 1 mg/kg PO one hour prior to formalin
# [4] = 3 mg/kg PO one hour prior to formalin
# [5] = 10 mg/kg PO one hour prior to formalin
# Sequence of human TRPA1 (O75762 whole entry, the tested form may be a part): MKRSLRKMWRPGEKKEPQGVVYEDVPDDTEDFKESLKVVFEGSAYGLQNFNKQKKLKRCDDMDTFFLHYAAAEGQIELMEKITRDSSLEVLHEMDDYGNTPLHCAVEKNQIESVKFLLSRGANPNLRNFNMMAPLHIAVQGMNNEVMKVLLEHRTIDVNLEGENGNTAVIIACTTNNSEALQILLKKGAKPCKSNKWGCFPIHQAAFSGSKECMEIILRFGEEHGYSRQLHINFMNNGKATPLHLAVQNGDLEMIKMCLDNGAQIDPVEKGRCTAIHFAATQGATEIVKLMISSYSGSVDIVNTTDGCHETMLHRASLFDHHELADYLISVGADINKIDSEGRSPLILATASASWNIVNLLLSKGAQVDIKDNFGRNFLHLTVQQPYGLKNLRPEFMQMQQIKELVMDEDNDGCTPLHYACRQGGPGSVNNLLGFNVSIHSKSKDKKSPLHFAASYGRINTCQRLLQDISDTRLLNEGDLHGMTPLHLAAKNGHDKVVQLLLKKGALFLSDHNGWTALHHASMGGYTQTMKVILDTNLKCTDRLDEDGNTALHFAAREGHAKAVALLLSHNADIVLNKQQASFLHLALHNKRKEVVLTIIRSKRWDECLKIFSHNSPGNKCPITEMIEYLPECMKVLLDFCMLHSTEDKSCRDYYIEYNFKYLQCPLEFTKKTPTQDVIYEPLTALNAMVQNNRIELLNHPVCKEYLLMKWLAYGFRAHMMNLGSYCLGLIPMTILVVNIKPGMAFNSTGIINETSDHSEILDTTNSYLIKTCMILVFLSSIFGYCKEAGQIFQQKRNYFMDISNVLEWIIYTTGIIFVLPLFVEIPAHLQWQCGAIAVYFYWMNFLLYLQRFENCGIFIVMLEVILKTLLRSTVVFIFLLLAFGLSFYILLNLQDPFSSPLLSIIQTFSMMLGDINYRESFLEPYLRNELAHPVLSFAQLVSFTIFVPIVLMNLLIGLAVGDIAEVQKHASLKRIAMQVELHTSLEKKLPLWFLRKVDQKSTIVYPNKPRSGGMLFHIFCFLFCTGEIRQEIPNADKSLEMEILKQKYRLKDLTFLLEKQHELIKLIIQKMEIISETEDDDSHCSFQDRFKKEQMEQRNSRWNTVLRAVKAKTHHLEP
smiles,measurement,setting,value
"Cc1noc(Cn2c(=O)c3c(ncn3[C@@H](C)C(=O)Nc3cncc(-c4cnc(C(F)(F)F)nc4)n3)n(C)c2=O)n1 [Compound 160, (S)-2-(3-methyl-1-((3-methyl-1,2,4-oxadiazol-5-yl)methyl)-2,6-dioxo-2,3-dihydro-1H-purin-7(6H)-yl)-N-(6-(2-(trifluoromethyl)pyrimidin-5-yl)pyrazin-2-yl)propanamide]",Average PWL Post-Treatment,[1]; 0.3 mg/kg PO,173.0
same,PWL Change,[1]; 0.3 mg/kg PO,64.7 s
same,Average PWL Post-Treatment,[1]; 1 mg/kg PO,269.6
same,PWL Change,[1]; 1 mg/kg PO,161.5 s
same,Average PWL Post-Treatment,[1]; 3 mg/kg PO,253.6
same,PWL Change,[1]; 3 mg/kg PO,146.2 s
same,Average PWL Post-CFA,[1]; group 0.3 mg/kg PO,108.2
same,Average PWL Post-CFA,[1]; group 1 mg/kg PO,108.1
same,Average PWL Post-CFA,[1]; group 3 mg/kg PO,107.5
same,IC50,human TRPA1,20 nM
same,Duration (0-2 Minutes) Average,[2]; [3],68.6 s
same,Duration (0-5 Minutes) Average,[2]; [3],167.3 s
same,Duration (0-2 Minutes) Average,[2]; [4],78.1 s
same,Duration (0-5 Minutes) Average,[2]; [4],232.0 s
same,Duration (0-2 Minutes) Average,[2]; [5],42.5 s
same,Duration (0-5 Minutes) Average,[2]; [5],150.4 s
